Data as given in patent US9636379B2, “Compositions and methods for treating pruritus” (Washington University, priority 2007, dated 2017).
Where no end group is shown, it is not given here.

Legend:
5-HT fibers = assay: Morphine-induced scratching after 5,7-DHT; type: in vivo, mice; conditions: vs saline vehicle
Excerpt: Repeated measures analysis of variance (ANOVA); *P<0.05, n=5-11.

GRPR [1] = type: in vivo; conditions: GRPR mutant mice compared to wild-type mice
Excerpt: All data are presented as means±s.e.m.
FIG. 17A-C depicts scratching behavior induced by i.d. injection of histamine, endothelin-1 or 5-HT in GRPR mutant (black bars) and wild-type mice (white bars).
To ascertain whether GRPR is required for itch sensation, we studied the effects of several pruritogenic agents in GRPR mutant mice and wild-type mice.

NMBR/GRPR = type: in vivo; conditions: NMBR/GRPR double knockout mice; for response to i.d. pruritogens: i.d. in 50 μl; for response to intrathecal bombesin-like peptides: GRP (1 nM), Bombesin (0.05 nM), NMB (2 nM)
Procedure: FIG. 44 depicts the itch behavior of NMBR/GRPR double knockout mice in response to 3 different bombesin-like peptides. […] GKO, GRPR mutant mice; DKO, NMBR/GRPR double KO mice.
(A), (C), (E), (G) and (I) are time course curve, while (B), (D), (F), (H) and (J) represent the total value comparisons from the same experiment. *p<0.05, **p<0.01; One-way ANOVA followed by Newman-Keuls post hoc test was used in all statistical analysis.
Histamine was injected i.d. in 50 μl at 20 μg/mouse. Compound 48/80 was injected i.d. in 50 μl at 20 μg/mouse. ET-1 was injected i.d. in 50 μl at 1 ng/mouse. […] Serotonin (5-HT) was injected i.d. in 50 μl at 1 1 nmol/μl.

NMBR = molecular target: T1, NMBR (Mus musculus, UniProt O54799); assay: Effect of NMBR antagonist on NMB-, GRP- and chloroquine-evoked scratching; type: in vivo, mice
T1 construct: NMBR is expressed in the most superficial layer of the dorsal spinal cord; endogenous in cells; host or cells: living wild-type mice, spinal cord (intrathecal injection)
T1 sequence (O54799 1-390): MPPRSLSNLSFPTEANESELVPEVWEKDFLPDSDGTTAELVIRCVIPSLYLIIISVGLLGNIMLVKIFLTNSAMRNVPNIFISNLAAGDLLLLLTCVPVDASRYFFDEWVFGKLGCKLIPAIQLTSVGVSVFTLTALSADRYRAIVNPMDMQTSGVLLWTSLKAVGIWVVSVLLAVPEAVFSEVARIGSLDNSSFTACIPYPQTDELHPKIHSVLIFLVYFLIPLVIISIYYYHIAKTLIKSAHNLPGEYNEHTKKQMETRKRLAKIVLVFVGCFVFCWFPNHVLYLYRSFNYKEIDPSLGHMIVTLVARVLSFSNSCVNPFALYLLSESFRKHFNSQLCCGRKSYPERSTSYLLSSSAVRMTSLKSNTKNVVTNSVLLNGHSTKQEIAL
Procedure: (B) Dose response experiment depicting the NMB-evoked scratching behavior in wild type mice measured over 30 minutes after injection with 1 and 2 nmol of PD168268.
(A) Number of scratches over time. (B) Comparison of cumulative number of scratches of the results shown in (A). PD168268 was injected at 2 nmol/mouse 10 min before GRP 1 nmol/mouse. p<0.01 (p=0.0072), t test, when the data in first 5 min was compared.
(A) Number of scratches over time. (B) Comparison of cumulative number of scratches of the results shown in (A). […] One-way ANOVA followed by Newman-Keuls post hoc test.

VR1 vanilloid receptor [2] = molecular target: T2, VR1 vanilloid receptor (Mus musculus, UniProt Q704Y3)
T2 sequence (Q704Y3 whole entry): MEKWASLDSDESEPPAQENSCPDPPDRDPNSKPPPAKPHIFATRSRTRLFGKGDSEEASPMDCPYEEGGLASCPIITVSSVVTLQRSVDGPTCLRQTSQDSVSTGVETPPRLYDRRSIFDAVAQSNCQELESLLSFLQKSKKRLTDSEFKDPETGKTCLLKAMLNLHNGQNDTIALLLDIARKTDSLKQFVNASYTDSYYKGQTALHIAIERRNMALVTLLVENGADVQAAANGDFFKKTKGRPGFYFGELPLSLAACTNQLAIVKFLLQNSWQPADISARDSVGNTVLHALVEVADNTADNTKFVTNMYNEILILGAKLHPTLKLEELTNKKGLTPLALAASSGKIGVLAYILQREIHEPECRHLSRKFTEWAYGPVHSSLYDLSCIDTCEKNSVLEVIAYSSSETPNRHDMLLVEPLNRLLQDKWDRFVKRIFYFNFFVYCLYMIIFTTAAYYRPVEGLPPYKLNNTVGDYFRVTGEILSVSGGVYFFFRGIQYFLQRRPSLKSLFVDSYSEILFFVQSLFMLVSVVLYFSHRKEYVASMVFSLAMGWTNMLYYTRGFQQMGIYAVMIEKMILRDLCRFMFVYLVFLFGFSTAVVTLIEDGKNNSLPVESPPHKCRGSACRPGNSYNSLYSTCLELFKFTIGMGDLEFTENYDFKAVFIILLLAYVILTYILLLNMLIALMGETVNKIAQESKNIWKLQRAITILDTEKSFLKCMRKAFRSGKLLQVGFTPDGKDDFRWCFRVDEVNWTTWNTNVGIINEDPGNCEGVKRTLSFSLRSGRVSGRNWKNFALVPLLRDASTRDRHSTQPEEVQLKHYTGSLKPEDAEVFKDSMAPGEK

VR1 vanilloid receptor [3] = molecular target: T2, VR1 vanilloid receptor; assay: Depletion of primary fibers by intrathecal resiniferatoxin (immunocytochemistry); type: in vivo, mice; set-up: An approximate 80% of GRP+ neurons express TRPV1, a vanilloid receptor important for detecting thermal and chemical stimuli in the DRGs; endogenous in cells; host or cells: living mice, TRPV1+ primary afferent fibers (intrathecal RTX)
Excerpt: FIG. 32A-L depicts micrographs showing that peptidergic but not non-peptidergic fibers were depleted by resiniferatoxin (RTX) treatment. […] The IB4 positive non-peptidergic fibers remain the same after RTX treatment (C) compared with the control group (D). […] GRP+ fibers are almost lost in the RTX treated group (I) compared with the control group (J). TRPV1 staining is lost after RTX treatment (K) compared to the control group (L).
An approximate 80% of GRP+ neurons express TRPV1, a vanilloid receptor important for detecting thermal and chemical stimuli in the DRGs (FIG. 31). […] Non-peptidergic primary fibers labeled by IB4-FITC are normal (FIG. 32C, D). […] Motor function is not affected by the depletion of TRPV1+ primary fibers (FIG. 33B).
Mice were given resiniferatoxin (Sigma, 25 ng/5 ul) or vehicle intrathecally under isoflurane-induced anesthesia. The behavior was tested 3-5 days later.

GRPR [4] = molecular target: T3, GRPR (Mus musculus, UniProt P21729); assay: Scratching behavior after intrathecal injection of GRPR agonist GRP18-27; type: in vivo, mice
T3 construct: GRP acts through spinal GRPR to mediate the transmission of information that drives scratching behavior; endogenous in cells; host or cells: living mice (C57BL/6J / wild-type littermates), spinal dorsal horn neurons reached by intrathecal injection
T3 sequence (P21729 whole entry): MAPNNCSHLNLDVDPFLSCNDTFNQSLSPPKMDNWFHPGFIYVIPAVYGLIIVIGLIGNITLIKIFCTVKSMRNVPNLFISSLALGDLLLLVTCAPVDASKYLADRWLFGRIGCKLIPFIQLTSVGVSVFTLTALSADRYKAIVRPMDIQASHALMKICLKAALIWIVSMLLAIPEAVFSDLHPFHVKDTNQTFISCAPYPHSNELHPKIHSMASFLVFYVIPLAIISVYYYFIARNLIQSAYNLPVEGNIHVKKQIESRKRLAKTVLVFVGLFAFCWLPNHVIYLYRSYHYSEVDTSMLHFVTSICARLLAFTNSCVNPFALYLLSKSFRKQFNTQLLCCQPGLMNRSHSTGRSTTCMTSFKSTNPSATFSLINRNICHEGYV
Procedure: (§1) FIG. 7A-E depicts graphs showing the effect of GRPR agonist and antagonist on scratching behavior. (A) Scratching behavior is monitored after intrathecal (i.t.) injection of GRP18-27 (0.03, 0.1 or 1.0 nmol/5 μl). GRP18-27 induced dose-dependent scratching behavior in wild-type mice (n=7; open circles). […] ANOVA; **P<0.01. […] ANOVA; *P<0.05.
(§2) To determine whether an activation of GRPR in the spinal cord may facilitate the transmission of itch signals, which would subsequently result in increased scratching behavior, the GRPR agonist GRP18-27 was intrathecally administered (Ladenheim et al., 1996).

GRPR [5] = molecular target: T3, GRPR; assay: Scratching induced by i.d. pruritogenic agents after i.t. GRPR antagonist; type: in vivo, mice; conditions: i.t. antagonist 10 min before i.d. injection of each pruritogenic agent; vs saline control
GRPR [6] = molecular target: T3, GRPR; set-up: species or system mice; conditions: in vivo
GRPR [7] = molecular target: T3, GRPR; type: in vivo, mice
GRPR [8] = assay: Scratching behavior after intrathecal injection of GRPR agonist GRP18-27; type: in vivo, mice; conditions: GRPR mutant mice compared with wild-type
Procedure: as §1, §2

[9] = three days after i.t. 25 ng/5 μl
[10] = antagonist 1.0 nmol i.t. vs vehicle

**Q.** For `NCCc1c[nH]c2c(O)cc(O)cc12` [5,7-DHT], which morphine-induced scratching behavior (5-HT fibers) is on record?
**A.** reduces, but does not eliminate scratching behavior

**Q.** For `NCCc1c[nH]c2ccc(O)cc12` [5-HT, serotonin], which “scratching behavior induced by i.d. injection, GRPR mutant vs wild-type mice” value (“scratching behavior induced … vs wild-type mice” for short) (GRPR [1]) is on record?
**A.** normal scratching behaviors

**Q.** What about the “response to i.d. pruritogens” value (NMBR/GRPR) of the same molecule?
**A.** deficits

**Q.** How did the GRP-induced scratching behaviors (NMBR; 2 nmol/mouse 10 min before GRP 1 nmol/mouse) turn out when `C[C@@](Cc1c[nH]c2ccccc12)(NC(=O)Nc1ccc([N+](=O)[O-])cc1)C(=O)NCC1(c2ccccn2)CCCCC1` [PD168268] was run?
**A.** inhibited

**Q.** And the NMB-induced scratching behaviors (NMBR; i.t. 1 or 2 nM/mouse 10 minutes before 2 nM/mouse of NMB, wild type mice)?
**A.** inhibited

**Q.** And the chloroquine-induced scratching behaviors (NMBR; i.t. 10 minutes before i.d. chloroquine 200 μg/mouse in 50 μL)?
**A.** inhibited

**Q.** How did the “response to i.d. pruritogens” value (NMBR/GRPR) turn out when `CCN(CC)CCCC(C)Nc1ccnc2cc(Cl)ccc12` (stereo not shown) [chloroquine] was run?
**A.** deficits

**Q.** With `NCCc1c[nH]cn1` [histamine] as the molecule, how does the “scratching behavior induced … vs wild-type mice” value (GRPR [1]) read?
**A.** either not significantly affected or modestly reduced

**Q.** What about the “response to i.d. pruritogens” value (NMBR/GRPR) of the same molecule?
**A.** deficits

**Q.** With `C=C(C)[C@]12C[C@@H](C)[C@@]34O[C@](Cc5ccccc5)(O[C@@H]1[C@@H]3C=C(COC(=O)Cc1ccc(O)c(OC)c1)C[C@]1(O)C(=O)C(C)=C[C@@H]41)O2` [resiniferatoxin] as the molecule, how does the “motor function (rotarod)” value (VR1 vanilloid receptor [2]; after RTX treatment) read?
**A.** not affected

**Q.** What about the tail-flick latency (VR1 vanilloid receptor [2]; after RTX treatment) of the same molecule?
**A.** significantly increased

**Q.** And the morphine-induced scratching behavior (VR1 vanilloid receptor [2]; mouse, in vivo)?
**A.** significantly reduced

**Q.** And the GRPR expression (VR1 vanilloid receptor [3]; after RTX treatment)?
**A.** remains normal

**Q.** What about the “GRP+ fibers” value (VR1 vanilloid receptor [3]; [9]) of the same molecule?
**A.** almost depleted

**Q.** What about the “PKCγ (LIIi layer)” value (VR1 vanilloid receptor [3]; [9]) of the same molecule?
**A.** remains normal

**Q.** What about the TRPV1 signal (VR1 vanilloid receptor [3]; [9]) of the same molecule?
**A.** almost lost

**Q.** And the “non-peptidergic primary fibers labeled by IB4-FITC” value (VR1 vanilloid receptor [3]; [9])?
**A.** normal

**Q.** What about the “peptidergic fibers labeled by CGRP” value (VR1 vanilloid receptor [3]; [9]) of the same molecule?
**A.** largely diminished

**Q.** D-Phe-6-Bn(6-13)OMe was tested. Which GRP18-27-induced scratching behavior (GRPR [4]; i.t. antagonist 1.0 nmol/2.5 μl, GRP18-27 1.0 nmol/2.5 μl, vs vehicle) did it give?
**A.** significantly inhibited

**Q.** What about the “scratching behavior induced by i.d. pruritogenic agents” value (GRPR [5]) of the same molecule?
**A.** significant reduction of the scratching behavior

**Q.** What about the “scratching induced by intrathecal morphine” value (GRPR [6]) of the same molecule?
**A.** significantly blocked

**Q.** And the mechanical thresholds (GRPR [7]; [10])?
**A.** not significantly affected

**Q.** What about the tailflick latency (GRPR [7]; [10]) of the same molecule?
**A.** comparable

**Q.** And the “analgesic effect of intrathecal morphine” value (GRPR [7]; morphine 0.3 nmol/5 μl, antagonist 1.0 nmol, vs vehicle)?
**A.** not significantly affected

**Q.** For “GRP18-27: GRPR agonist, intrathecally administered”, which “scratching behavior after i.t. GRP18-27” value (GRPR [4]; wild-type mice, i.t. 0.03, 0.1 or 1.0 nmol/5 μl) is on record?
**A.** increased scratching behavior was found in a dose-dependent manner

**Q.** What about the “number of scratching behaviors after i.t. GRP18-27” value (GRPR [8]) of the same molecule?
**A.** significantly lower

**Q.** How did the “response to intrathecal bombesin-like peptides” value (NMBR/GRPR) turn out when “GRP: gastrin-releasing peptide, bombesin-like peptide given intrathecally (VPLPAGGGTVLTKMYPRGNHWAVGHLM; ends and bridges not checked; UniProt P07492 24-50, looked up)” was run?
**A.** deficits

**Q.** With SLIGRL-NH2 as the molecule, how does the “scratching behavior induced … vs wild-type mice” value (GRPR [1]) read?
**A.** significantly reduced

**Q.** How did the “scratching behavior induced … vs wild-type mice” value (GRPR [1]) turn out when “endothelin-1: exerts its pruritic effect through ETA receptors” was run?
**A.** normal scratching behaviors

**Q.** And the “response to i.d. pruritogens” value (NMBR/GRPR)?
**A.** deficits

**Q.** With neuromedin B [NMB] as the molecule, how does the “response to intrathecal bombesin-like peptides” value (NMBR/GRPR) read?
**A.** deficits
